Consider 1 compound from PMC10552397 (Cell Communication and Signaling : CCS, 2023).

Each structure is given as a SMILES string. Read-outs that look alike come from different tables or passages of the source.

One assay has as its system JUNB. The experiment in a line: TPP-TR/RTSA, JUNB. Format: binding, Homo sapiens. Particulars: 100 nM vs DMSO, 6 h, HeLa wt. As for the experimental part:
(§1) TPP was performed essentially as described, but with major modifications to the TMT labeling sets and statistical data analysis for TPP-TR.
(§2) Adherent cells were washed in the dish once with DPBS and harvested by Trypsin–EDTA (0.25%, Thermo Fisher Scientific, Waltham, MA, USA, #25,200,056) treatment. […]
(§3) After temperature treatment, samples were supplemented with lysis buffer (final concentrations: 0.36 U/µL benzonase, 1.5 mM MgCl2, 1 mM Na3VO4, 10 mM NaF, 2.5 mM Na4P2O7, 0.8% w/v NP-40) for 1 h on ice. […] The total protein concentration of the resulting cell extracts containing the fraction of soluble, non-denatured proteins was determined (Pierce 660 nm Protein Assay, BSA as standard). […] The two (37 °C or 50 °C) x ten (concentrations) x three (replicates) = 60 TPP-CCR samples and two (treatment and control) x ten (temperatures) x three (replicates) = 60 TPP-TR samples were analyzed by LC–MS/MS. GRASP55 was additionally quantified from the TPP-TR samples by immunoblotting as described in the respective section.
(§4) For TPP-CCR, SP3 was performed as described with slight modifications to the original protocol using on average 5 µg total protein per sample and resulting in theoretically 5 µg peptides in 22 µL 50 mM triethylammonium bicarbonate per sample. […] This volume was calculated such that the lowest two temperature samples (36.5 °C and 41.2 °C) contained 10 µg total protein on average. […]

Another assay has as its target T1, SDC4 (Homo sapiens, UniProt P31431).
T1 construct: endogenous in cells; host or cells: HeLa wt cells
T1 sequence (P31431 19-198): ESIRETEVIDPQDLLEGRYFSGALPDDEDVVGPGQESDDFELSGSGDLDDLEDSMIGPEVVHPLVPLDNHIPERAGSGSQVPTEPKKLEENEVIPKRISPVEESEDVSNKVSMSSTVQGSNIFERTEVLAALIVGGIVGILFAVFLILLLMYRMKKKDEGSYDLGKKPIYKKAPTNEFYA
The experiment in a line: TPP-TR/RTSA, SDC4. The format is binding. As for the experimental part: as §1, §2, §3, §4

Assay [1] concerns HeLa wt cells. The assay can be described thus: Immunofluorescence of GRASP55 and LC3. The format is cell-based. Conditions: 6 h. As for the experimental part:
For immunofluorescence microscopy, HeLa cells were seeded on glass coverslips in 24-well plates. After treatment, cells were fixed in 4% paraformaldehyde for 15 min on ice, quenched with 50 mM NH4Cl for 15 min and permeabilized with 50 µg/mL digitonin (Sigma-Aldrich, St. Louis, MO, USA, #D141) for 5 min. Fixed samples were blocked with 3% BSA (Roth, Karlsruhe, Germany, #8076) for 30 min or overnight and incubated with primary antibodies diluted in 3% BSA for 2 h. Samples were then washed three times with DPBS, incubated with the appropriate secondary antibodies diluted in 3% BSA for 30 min and washed three times with DPBS. Afterwards, cells were embedded in ProLong Glass Antifade Mountant (Thermo Fisher Scientific, Waltham, MA, USA, #P36980) containing 1 µg/mL DAPI (Roth, Karlsruhe, Germany, #6335.1). Images were recorded with an Axio Observer 7 fluorescence microscope (Carl Zeiss Microscopy, Oberkochen, Germany) using a 40x/1,4 Oil DIC M27 Plan-Apochromat objective (Carl Zeiss Microscopy, Oberkochen, Germany) and an ApoTome 2 (Carl Zeiss Microscopy, Oberkochen, Germany).

The test system of assay [2] is HeLa wt cells. The assay can be described thus: MTT cell viability assay, HeLa wt. Particulars: Homo sapiens. Format: cell-based.
Method: Cell viability was measured using the MTT (3-(4,5-dimethylthiazol-2-yl)-2,5-diphenyltetrazolium bromide) assay. HeLa cells were seeded in 96-well plates with a density of 5*10^3 cells/well. […] After the incubation time, 20 µL of a 5 mg/mL MTT stock solution (ROTH, Karlsruhe, Germany, #4022.3) were added to the cells and they were incubated at 37 °C and 5% CO2 in a humidified atmosphere for 30 min. Upon removal of the MTT-containing medium 100 µL DMSO per well were added for extraction of the formazan. Absorbance was measured at 570 nm and 650 nm (reference) with a microplate reader (SynergyMx, BioTek, Winooski, VT, USA). After subtraction of the reference value, the mean of the absorbance of the solvent control was set as 100% and the relative viability was calculated for each sample.
All IC50 values were calculated using GraphPad Prism 7.01.

Consider `CCCCCC1=C/C(=C/c2[nH]c(-c3ccc[nH]3)cc2OC)N=C1C` [Prodigiosin, prodigiosin], for which the Mean_dTm in the assay with JUNB was 2.343. Further, the ΔTm at 0.1 µM on SDC4 (100 nM vs DMSO, 6 h, HeLa wt, read-out: Mean_dTm) was found to be 0.55 °C. Further, the distancescore on SDC4 (RTSA distance score) was determined as 10.308. Further, the “co-localization of LC3 and GRASP55” value in the assay on HeLa wt cells [1] (BafA1 10 nM) was “highly significant, dose-dependent increase”. Besides, the “number of LC3 dots” value in the assay on HeLa wt cells [1] (BafA1 10 nM) is recorded as “increased dose-dependently”. Also, the “mean area of GRASP55 dots” value in the assay on HeLa wt cells [1] (all concentrations, vs DMSO) is “significantly increased”. Further, the IC50 in the assay on HeLa wt cells [2] (24 h, Fig. 1B, read-out: IC50 (24 h)) was determined as 685 nM; in the assay on HeLa wt cells [2] (24 h, Fig. 5C (independent of Fig. 1B), read-out: IC50 value wt), 547 nM; with HeLa wt cells [2] (72 h, Fig. 1B, read-out: IC50 (72 h)), 77 nM; in the assay with HeLa wt cells [2] (72 h, Fig. 5C (independent of Fig. 1B), read-out: IC50 value wt), 63.9 nM.
